The text below walks through data of publication PMC10820528, “New Rare Triterpene Glycosides from Pacific Sun Star, Solaster pacificus, and Their Anticancer Activity” (Marine Drugs, 2023).

Series [1] deals with breast cancer MDA-MB-231 cells. The experiment in a line: cells. In kind it is cell-based. On the procedure: (§1) We calculated the inhibiting concentration that cause death of 50% of cells (IC50) and the selectivity index (SI) of the compounds tested (Table 4).
(§2) The human embryonic kidney HEK 293 cells (ATCC® CRL-1573™), breast cancer MDA-MB-231 cells (ATCC® HTB-26™), and colorectal carcinoma HCT 116 cells (ATCC® CCL-247™) were purchased from the American Type Culture Collection (Manassas, VA, USA). The HEK 293 and MDA-MB-231 cells were cultured in DMEM; the HCT 116 cells were cultured in the McCoy’s 5A medium at 37 °C in a humidified atmosphere containing 5% CO2. The culture media were supplemented with 10% heat-inactivated FBS and a 1% penicillin/streptomycin solution. The number of passages was carefully controlled, and contamination by Mycoplasma was monitored on a regular basis.
(§3) Compounds 1–3, and 6–8 were dissolved in sterile dimethyl sulfoxide (DMSO), to prepare stock concentrations of 20 mM. Cells were treated with serially diluted 1–3, 6–8 (0.3–100 µM) (with the culture medium used as diluent) (the final concentration of DMSO was less than 0.5%). The vehicle control was the cells treated with an equivalent volume of DMSO (the final concentration was less than 0.5%) for all of the presented experiments.
(§4) HEK 293 (1.0 × 10^4/200 µL), HCT 116 (1.0 × 10^4/200 µL), and MDA-MB-231 (0.8 × 10^4/200 µL) cells were seeded in a 96-well plate and incubated for 24 h at 37 °C in a CO2 incubator. […] The cells were subsequently incubated with 15 µL of the MTS reagent for 3 h. The absorbance of each well was measured at 490/630 nm on a Power Wave XS microplate reader (BioTek, Winooski, VT, USA).
(§5) The IC50 concentration was calculated using the AAT-Bioquest® online calculator [24]. The selectivity index (SI) was calculated as described previously, using the following formula: SI = IC50 of the compounds for normal cells (HEK 293) divided by IC50 of the same compounds for the human colorectal adenocarcinoma and breast cancer (HCT 116 and MDA-MB-231) cell lines.

Series [2] concerns human embryonic kidney HEK 293 cells. The experiment in a line: cells. Type of series: cell-based. On the procedure: as §1, §2, §3, §4, §5
Series [3] concerns human colorectal carcinoma HCT 116 cells. Put plainly: Scratch (wound-healing) assay, HCT 116. In kind it is cell-based. The note with it: for suppression of migration of HCT 116 cells: 48 h, compared to control at 48 h; for reduction of migration of HCT 116 cells: 72 h of treatment, compared to control at 72 h. The text has this: (§6) Metastasis is the leading cause of cancer mortality. The metastatic cascade is a multistep process in which cancer cells are […], from the primary tumor to distant parts and tissues. Migration and plasticity of cancer cells, as well as the environment such as stromal and endothelial cells, are essential in metastasis. In this study, the migration ability (invasive potential) of colorectal carcinoma HCT 116 cells and breast cancer MDA-MB-231 cells and the anti-invasive effect of compound 2 were determined by the “wound-healing”, or scratch, method.
(§7) HCT 116 and MDA-MB-231 cells (3 × 10^5 cells/mL) were seeded in 6-well plates and grown to 80% confluence for 24 h. After removing the culture medium, the cells’ monolayer was scraped with a 200 µL sterile pipette tip, to create a straight scratch. Then, the cells were treated with compound 2 at concentrations of 0.6, 1.25, 2.5, and 5 µM and incubated for 24, 48, and 72 h. All experiments were set up in triplicate for each group. For image analysis, the cell migration into the wound area was photographed at the stages of 0, 24, 48, and 72 h through a Motic AE 20 microscope and using the ImageJ v. 1.50i software, bundled with 64-bit Java 1.6.0_24 (NIH, Bethesda, MD, USA). The cell migration distance was estimated by measuring the width of the wound, and was expressed as the percentage of each control (0 h) in relation to the mean of the wound-closure area.

Series [4] concerns colorectal carcinoma HCT 116 cells. The experiment in a line: cells. In kind it is cell-based. On the procedure:
We determined the cytotoxicity of compounds 1–3 and 6–8 against human embryonic kidney HEK 293, colorectal carcinoma HCT 116, and breast cancer MDA-MB-231 cells by the MTS assay, after 24 h of treatment with the compounds. We calculated the inhibiting concentration that cause death of 50% of cells (IC50) and the selectivity index (SI) of the compounds tested (Table 4).
as §2, §3, §4, §5

The test system of series [5] is breast cancer MDA-MB-231 cells. Put plainly: Soft-agar clonogenic assay, MDA-MB-231. In kind it is cell-based, human. The conditions noted are these: 14 days. On the procedure:
(§8) The soft-agar clonogenic assay was applied in order to assess the effect of compound 2 on the colony formation of human colorectal carcinoma HCT 116 and breast cancer MDA-MB-231 cells. As a result, compound 2 at concentrations of 0.6, 1.25, 2.5, and 5 µM decreased the number of colonies of HCT 116 cells by 11, 24, 52, and 97%, respectively (Figure 6a,b) and MDA-MB-231 cells by 20, 39, 61, and 80%, respectively (Figure 6c,d).
(§9) HCT 116 and MDA-MB-231 cells (2.4 × 10^4/mL) were treated with compound 2 (0.6, 1.25, 2.5, and 5 µM). Then, the cells were placed onto 0.3% BME agar containing 10% FBS, 2 mM L-glutamine, and 25 µg/mL gentamicin. The cultures were maintained at 37 °C in a 5% CO2 incubator for 14 days. The number of colonies was counted under an AE 20 Motic microscope using the ImageJ v. 1.50i software, bundled with 64-bit Java 1.6.0_24 (NIH, Bethesda, MD, USA).

For series [6], the system named is human colorectal carcinoma HCT 116 cells. Put plainly: Soft-agar clonogenic assay, HCT 116. In kind it is cell-based. The conditions noted are these: 14 days. On the procedure: as §8, §9
In series [7] the test system is breast cancer MDA-MB-231 cells. The experiment in a line: Scratch (wound-healing) assay, MDA-MB-231. Type of series: cell-based. The conditions noted are these: Homo sapiens, 24 h of treatment, compared to control at 24 h, read-out: inhibition of migration of MDA-MB-231 cells.
From the text: as §6
as §7, with “1.50i software, bundled with 64-bit Java 1.6.0_24 (NIH, Bethesda, MD, USA).” left out

Series [8] deals with metastatic breast cancer. On the set-up: method as in PMID 21761157. The note with it: syngeneic murine model of metastatic breast cancer; cited from earlier work.
Series [9] deals with MDA-MB-231 human breast cancer cells. On the set-up: method as in PMID 21741966. The note with it: concentration- and time-dependent; cited from earlier work.
In series [10] the test system is AsPC-1 human pancreatic cancer cells. On the set-up: method as in PMID 18837899. The conditions noted are these: by induction of apoptosis; cited from earlier work.

The term IC50 denotes the concentration at which inhibition is half-maximal. Take `CO[C@@H]1[C@@H](O)[C@H](O[C@@H]2[C@@H](O)[C@H](O[C@H]3[C@H](O)[C@@H](O)[C@H](O[C@H]4[C@H](O[C@H]5CC[C@]6(C)C7=C(CC[C@H]6C5(C)C)[C@]5(C)C[C@H](OC(C)=O)[C@H]([C@@](C)(O)CCC=C(C)C)[C@@]5(CO)CC7)OC[C@@H](O)[C@@H]4O)O[C@@H]3C)O[C@H](CO)[C@H]2O)OC[C@H]1O` [Compound 2, (20S)-3β-O-[3-O-methyl-β-D-xylopyranosyl-(1→3)-β-D-glucopyranosyl-(1→4)-β-D-quinovopyranosyl-(1→2)-β-D-xylopyranosyl]-16β-acetoxy,18,20-dihydroxy-5α-lanosta-8(9),24-diene]: the “cytotoxic activity in words, MDA-MB-231” value in series [1] is reported as “Moderate”. For the same compound, the IC50 in [1] (Homo sapiens, MDA-MB-231, MTS assay, 24 h of cell incubation, mean ± SD, read-out: IC50, MDA-MB-231) is 15.5 ± 1.6 µM; in [2] (Homo sapiens, HEK293, MTS assay, 24 h of cell incubation, mean ± SD, read-out: IC50, HEK 293), 18.5 ± 2.5 µM; in series [4] (Homo sapiens, HCT-116, MTS assay, 24 h of cell incubation, mean ± SD, read-out: IC50, HCT 116), 18.6 ± 1.4 µM. Moreover, the “SI (selectivity index), MDA-MB-231” value in series [1] (mean IC50 against normal cells (HEK 293)/mean IC50 against MDA-MB-231, 24 h) is on record as 1.2. Besides, the “cytotoxic activity in words, HEK 293” value in series [2] is “Moderate”. The “suppression of migration of HCT 116 cells” value was found to be 8% in [3] (0.6 µM), 18% in series [3] (1.25 µM), 42% in [3] (2.5 µM) and 41% in series [3] (5 µM). Besides, the “reduction of migration of HCT 116 cells” value stood at 3% in series [3] (0.6 µM), 3% in series [3] (1.25 µM), 23% in series [3] (2.5 µM) and 41% in series [3] (5 µM). Also, the inhibition at 0.6 µM in series [3] (Homo sapiens, HCT-116, 0.6 µM, 24 h of treatment, compared to control 24 h, read-out: inhibition of migration of HCT 116 cells) was 5%. Further, the inhibition at 1.25 µM in [3] (Homo sapiens, HCT-116, 1.25 µM, 24 h of treatment, compared to control 24 h, read-out: inhibition of migration of HCT 116 cells) is 17%. Moreover, the inhibition at 2.5 µM in [3] (Homo sapiens, HCT-116, 2.5 µM, 24 h of treatment, compared to control 24 h, read-out: inhibition of migration of HCT 116 cells) amounted to 30%. The inhibition at 5 µM turned out to be 37% in series [3] (Homo sapiens, HCT-116, 5 µM, 24 h of treatment, compared to control 24 h, read-out: inhibition of migration of HCT 116 cells) and 15% in series [7]. In addition, the “cytotoxic activity in words, HCT 116” value in [4] is “Moderate”. The “SI (selectivity index), HCT 116” value in series [4] (mean IC50 against normal cells (HEK 293)/mean IC50 against HCT 116, 24 h) turned out to be 1. In addition, the “decrease of the number of colonies, MDA-MB-231” value in series [5] (0.6 µM) amounted to 20%; in [5] (1.25 µM), 39%; in series [5] (2.5 µM), 61%; in series [5] (5 µM), 80%. Further, the “decrease of the number of colonies, HCT 116” value stood at 11% in series [6] (0.6 µM), 24% in [6] (1.25 µM), 52% in series [6] (2.5 µM) and 97% in [6] (5 µM).

Turning to `CO[C@@H]1[C@@H](O)[C@H](O[C@@H]2[C@@H](O)[C@H](O[C@H]3[C@H](O)[C@@H](O[C@@H]4OC[C@@H](O)[C@H](O)[C@H]4O)[C@H](O[C@H]4[C@H](OC5CC[C@]6(C)[C@H]7CCC89C(=O)O[C@@](C)(CCCC(C)C)C8[C@@H](OC(C)=O)C[C@@]9(C)C7=CC[C@H]6C5(C)C)OC[C@@H](OS(=O)(=O)O)[C@@H]4O)O[C@@H]3C)OC[C@H]2O)O[C@H](CO)[C@H]1O` (some centres unmarked) [frondoside A], the antimetastatic effect entry in series [8] is “potent antimetastatic effect”. Besides, the “viability of MDA-MB-231 cells” value in [9] is “decreases the viability”. In series [10], the “proliferation of AsPC-1 cells” value is given as “inhibits proliferation”.
